In ChEMBL document CHEMBL1201862, “PubChem BioAssay data set” (2004):
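48-hour exposure; five concentrations; linearly interpolated endpoints. At the GI50, growth is halved.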 Calls of active or inactive are those of the source. No stated cut-off is given here; in the data, active = GI50 up to about 1.1 µM and inactive = higher.

Key:
Test in all cases: NCI anticancer screen, dose series, 48 h
[1] = system: M14
[2] = system: RPMI-8226
[3] = system: U-251
[4] = system: SK-MEL-5
[5] = system: HT-29
[6] = system: SF-539
[7] = system: HCT-15
[8] = system: SNB-19
[9] = system: EKVX
[10] = system: Hs-578T
[11] = system: UACC-257
[12] = system: SR
[13] = system: NCI-H522
[14] = system: NCI-H460
[15] = system: MDA-N
[16] = system: OVCAR-4
[17] = system: MOLT-4
[18] = system: DU-145
[19] = system: A549
[20] = system: LOX IMVI

Compound | GI50 [1] | GI50 [2] | GI50 [3] | GI50 [4] | GI50 [5] | GI50 [6] | GI50 [7] [µM] | GI50 [8] | GI50 [9] | GI50 [10] | GI50 [11] | GI50 [12] | GI50 [13] | GI50 [14] | GI50 [15] | GI50 [16] | GI50 [17] | GI50 [18] | GI50 [19] | GI50 [20]
Clc1ccc(-c2noc(CN3CCCCC3)n2)cc1 | > 100 µM (inactive) | 43.9 µM (inactive) | > 100 µM (inactive) | 34 µM (inactive) | 46.2 µM (inactive) | > 100 µM (inactive) | > 100 | > 100 µM (inactive) | 54 µM (inactive) | > 100 µM (inactive) | 71 µM (inactive) | 63.1 µM (inactive) | 81.1 µM (inactive) | > 100 µM (inactive) | > 100 µM (inactive) | > 100 µM (inactive) | 49.7 µM (inactive) | > 100 µM (inactive) | > 100 µM (inactive) | –
CC1CCC2C(C)C(OC(=O)CCC(=O)O)OC3OC4(C)CCC1C32OO4 (centres undefined) | 17.2 µM (inactive) | 0.246 µM (active) | 2.98 µM (inactive) | 1.57 µM (inactive) | 3.52 µM (inactive) | 11 µM (inactive) | 0.388 | 37.6 µM (inactive) | 6.27 µM (inactive) | 16 µM (inactive) | 2.17 µM (inactive) | 0.519 µM (active) | – | 7.31 µM (inactive) | 2.65 µM (inactive) | 7.01 µM (inactive) | 0.346 µM (active) | 21.4 µM (inactive) | 11.9 µM (inactive) | 1.06 µM (active)
COC(=O)C1(Cc2ccccc2)Cc2ccccc2C1=O (centres undefined) | 32.5 µM (inactive) | 35 µM (inactive) | 27.7 µM (inactive) | 20 µM (inactive) | 45.3 µM (inactive) | > 100 µM (inactive) | 37.2 | – | 30.3 µM (inactive) | 61.1 µM (inactive) | 45.8 µM (inactive) | 23.8 µM (inactive) | – | 46 µM (inactive) | 32.1 µM (inactive) | 25.4 µM (inactive) | 25.6 µM (inactive) | 83.4 µM (inactive) | 32.9 µM (inactive) | 43.7 µM (inactive)
CC1CCCCN1CC(=O)c1ccc2c(c1)Sc1ccccc1O2 (centres undefined) | 19.5 µM (inactive) | > 100 µM (inactive) | 14.1 µM (inactive) | – | 8.61 µM (inactive) | 16.9 µM (inactive) | 19.7 | 17.9 µM (inactive) | 13.3 µM (inactive) | 10.8 µM (inactive) | 18.4 µM (inactive) | 15.3 µM (inactive) | – | 14.2 µM (inactive) | 15.2 µM (inactive) | 13.2 µM (inactive) | 19.3 µM (inactive) | 26.7 µM (inactive) | 14.6 µM (inactive) | 9.93 µM (inactive)
CC(=O)OC12c3ccccc3C(c3ccccc31)C1C(=O)N(N=C(C)C)C(=O)C12 (centres undefined) | > 100 µM (inactive) | > 100 µM (inactive) | > 100 µM (inactive) | > 100 µM (inactive) | > 100 µM (inactive) | > 100 µM (inactive) | > 100 | > 100 µM (inactive) | > 100 µM (inactive) | > 100 µM (inactive) | > 100 µM (inactive) | > 100 µM (inactive) | – | – | > 100 µM (inactive) | > 100 µM (inactive) | > 100 µM (inactive) | > 100 µM (inactive) | > 100 µM (inactive) | > 100 µM (inactive)
Cc1ccc2c(c1)C(=S)N1CSCC1c1nncn1-2 (centres undefined) | > 100 µM (inactive) | > 100 µM (inactive) | > 100 µM (inactive) | > 100 µM (inactive) | > 100 µM (inactive) | – | > 100 | > 100 µM (inactive) | > 100 µM (inactive) | > 100 µM (inactive) | > 100 µM (inactive) | > 100 µM (inactive) | > 100 µM (inactive) | > 100 µM (inactive) | > 100 µM (inactive) | > 100 µM (inactive) | > 100 µM (inactive) | > 100 µM (inactive) | > 100 µM (inactive) | > 100 µM (inactive)
CCN(CC)C(=S)SC1C(=O)NC(=O)NC1=O | – | > 100 µM (inactive) | > 100 µM (inactive) | > 100 µM (inactive) | > 100 µM (inactive) | > 100 µM (inactive) | > 100 | – | > 100 µM (inactive) | > 100 µM (inactive) | > 100 µM (inactive) | > 100 µM (inactive) | > 100 µM (inactive) | 0.017 µM (active) | > 100 µM (inactive) | > 100 µM (inactive) | > 100 µM (inactive) | > 100 µM (inactive) | > 100 µM (inactive) | > 100 µM (inactive)
